Experimental findings from ChEMBL document CHEMBL4765228, “Indole-like Trk receptor antagonists” (Eur J Med Chem, 2016) are described below.

Converted amounts (≈) assume the structure as drawn. The source made the active and inactive calls. The calls are words filed in the database; no cut-off is given here.

A word on the IC50: it is the point on the concentration scale where inhibition reaches its midpoint. Low values mean inhibition by little substance, high ones a need for much substance. The solubility is the dissolved amount per volume that the medium holds. Low values mean little dissolved substance, high ones much dissolved substance.

Data set [1] concerns the target T1, High affinity nerve growth factor receptor (Homo sapiens, UniProt P04629). In words: Inhibition of TrkA (unknown origin).
The target of data set [2] is Tyrosine-protein kinase SYK (Homo sapiens) (UniProt P43405). The data set can be described thus: Inhibition of human SYK (1 to 635 residues) assessed as residual activity at 0.1 uM relative to control.
For data set [3] the target is unchanged. In words: Inhibition of human SYK (1 to 635 residues) assessed as residual activity at 1 uM relative to control.
Data set [4] addresses NT-3 growth factor receptor (Homo sapiens, UniProt Q16288). In words: Inhibition of TrkC (unknown origin).
For data set [5], the target named is T2, BDNF/NT-3 growth factors receptor (Homo sapiens, UniProt Q16620). The data set can be described thus: Inhibition of TrkB (unknown origin).
T2 sequence (Q16620 whole entry): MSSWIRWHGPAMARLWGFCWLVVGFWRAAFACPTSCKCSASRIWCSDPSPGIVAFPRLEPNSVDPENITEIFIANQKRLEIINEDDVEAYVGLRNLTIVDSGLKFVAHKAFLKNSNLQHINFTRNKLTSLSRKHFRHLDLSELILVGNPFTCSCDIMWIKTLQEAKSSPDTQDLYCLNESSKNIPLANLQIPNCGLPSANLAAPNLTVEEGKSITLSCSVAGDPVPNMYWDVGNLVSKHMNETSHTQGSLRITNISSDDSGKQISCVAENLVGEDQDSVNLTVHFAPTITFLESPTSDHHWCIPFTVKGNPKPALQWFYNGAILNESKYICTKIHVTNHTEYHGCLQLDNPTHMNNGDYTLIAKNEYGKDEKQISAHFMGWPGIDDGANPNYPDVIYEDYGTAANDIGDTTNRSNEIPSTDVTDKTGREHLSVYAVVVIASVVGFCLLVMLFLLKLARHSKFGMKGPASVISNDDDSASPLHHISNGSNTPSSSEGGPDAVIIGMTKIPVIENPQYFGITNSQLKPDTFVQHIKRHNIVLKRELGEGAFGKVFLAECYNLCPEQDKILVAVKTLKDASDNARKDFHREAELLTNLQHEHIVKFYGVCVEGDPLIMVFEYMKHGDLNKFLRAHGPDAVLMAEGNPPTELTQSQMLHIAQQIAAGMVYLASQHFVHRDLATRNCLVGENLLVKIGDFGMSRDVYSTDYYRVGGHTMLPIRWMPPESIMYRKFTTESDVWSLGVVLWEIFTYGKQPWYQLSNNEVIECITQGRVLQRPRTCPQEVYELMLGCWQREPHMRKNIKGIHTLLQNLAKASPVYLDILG
Data set [6] has as its target Mitogen-activated protein kinase 14 (Homo sapiens) (UniProt Q16539). The data set can be described thus: Inhibition of human p38-alpha assessed as residual activity at 1 uM relative to control.
Data set [7] addresses Protein kinase C alpha type (Homo sapiens) (UniProt P17252). In words: Inhibition of human PKCalpha assessed as residual activity at 1 uM relative to control.
For data set [8], the target named is Ribosomal protein S6 kinase alpha-5 (Homo sapiens) (UniProt O75582). In words: Inhibition of human RPS6KA5 assessed as residual activity at 1 uM relative to control.
Ribosomal protein S6 kinase alpha-5 (Homo sapiens), sequence (O75582 whole entry, looked up): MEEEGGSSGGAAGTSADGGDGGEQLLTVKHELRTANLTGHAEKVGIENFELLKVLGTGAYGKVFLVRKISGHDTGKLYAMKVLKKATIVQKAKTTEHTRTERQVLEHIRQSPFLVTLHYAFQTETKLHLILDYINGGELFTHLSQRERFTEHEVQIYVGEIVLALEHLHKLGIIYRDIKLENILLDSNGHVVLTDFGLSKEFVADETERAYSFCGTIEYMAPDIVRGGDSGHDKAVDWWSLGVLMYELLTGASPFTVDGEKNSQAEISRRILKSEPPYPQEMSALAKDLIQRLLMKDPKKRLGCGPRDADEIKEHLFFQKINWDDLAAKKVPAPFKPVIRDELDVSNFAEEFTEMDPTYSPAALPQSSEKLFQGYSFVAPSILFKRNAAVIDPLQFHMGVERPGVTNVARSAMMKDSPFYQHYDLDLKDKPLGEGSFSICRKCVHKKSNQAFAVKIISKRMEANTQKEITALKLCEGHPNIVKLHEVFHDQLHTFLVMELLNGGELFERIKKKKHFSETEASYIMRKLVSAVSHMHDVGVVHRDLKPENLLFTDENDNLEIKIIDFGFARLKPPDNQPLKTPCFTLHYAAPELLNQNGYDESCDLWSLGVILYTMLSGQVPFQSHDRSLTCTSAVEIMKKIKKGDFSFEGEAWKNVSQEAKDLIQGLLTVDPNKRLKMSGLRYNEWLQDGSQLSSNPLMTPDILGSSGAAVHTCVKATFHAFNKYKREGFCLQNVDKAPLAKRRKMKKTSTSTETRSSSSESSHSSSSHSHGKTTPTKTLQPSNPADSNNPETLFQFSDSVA
The target in data set [9] is Tyrosine-protein kinase JAK2 (Homo sapiens) (UniProt O60674). In words: Inhibition of human JAK2 assessed as residual activity at 0.1 uM relative to control.
Tyrosine-protein kinase JAK2 (Homo sapiens), sequence (O60674 whole entry, the tested form may be a part): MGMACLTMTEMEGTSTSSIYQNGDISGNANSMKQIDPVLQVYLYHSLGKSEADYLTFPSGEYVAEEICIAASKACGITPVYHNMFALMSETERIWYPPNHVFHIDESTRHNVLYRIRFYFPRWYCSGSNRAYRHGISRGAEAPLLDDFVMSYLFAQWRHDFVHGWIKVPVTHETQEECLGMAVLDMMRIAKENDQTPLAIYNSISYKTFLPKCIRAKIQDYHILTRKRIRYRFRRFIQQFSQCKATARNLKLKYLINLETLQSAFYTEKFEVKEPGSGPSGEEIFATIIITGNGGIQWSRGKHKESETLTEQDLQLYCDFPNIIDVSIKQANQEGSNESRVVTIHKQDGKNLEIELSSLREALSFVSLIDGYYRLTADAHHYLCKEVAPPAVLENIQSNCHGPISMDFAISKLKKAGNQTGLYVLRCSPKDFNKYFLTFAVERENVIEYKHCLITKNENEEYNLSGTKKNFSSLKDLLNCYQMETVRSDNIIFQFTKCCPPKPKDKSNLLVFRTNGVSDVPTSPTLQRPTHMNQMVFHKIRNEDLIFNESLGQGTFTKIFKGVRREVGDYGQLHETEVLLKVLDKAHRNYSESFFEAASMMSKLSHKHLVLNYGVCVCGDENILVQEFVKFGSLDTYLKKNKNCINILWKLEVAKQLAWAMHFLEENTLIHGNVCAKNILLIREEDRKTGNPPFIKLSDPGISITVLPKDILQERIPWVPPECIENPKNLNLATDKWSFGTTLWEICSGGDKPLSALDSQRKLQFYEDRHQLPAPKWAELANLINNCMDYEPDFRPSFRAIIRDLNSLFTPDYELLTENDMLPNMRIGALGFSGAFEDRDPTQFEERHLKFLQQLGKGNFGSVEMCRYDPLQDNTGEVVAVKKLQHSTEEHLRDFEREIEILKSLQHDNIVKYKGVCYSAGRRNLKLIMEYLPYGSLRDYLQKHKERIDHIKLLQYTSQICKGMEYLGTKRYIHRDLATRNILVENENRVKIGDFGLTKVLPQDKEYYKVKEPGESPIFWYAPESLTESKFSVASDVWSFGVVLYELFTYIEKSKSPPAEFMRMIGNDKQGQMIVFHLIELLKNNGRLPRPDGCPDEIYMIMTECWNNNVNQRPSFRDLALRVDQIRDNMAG
The target in data set [10] is T1, High affinity nerve growth factor receptor. In words: Inhibition of GAL4 fused TrkA (unknown origin) expressed in PC12 cells transfected with pFA2-Elk plasmid and pFR-luciferase plasmid measured for 18 hrs by luciferase reporter gene assay. Type of data set: cell-based, Rattus norvegicus, PC-12. Background: A reporter such as luciferase makes a cellular process visible.

Data set [11] deals with T3, Eukaryotic elongation factor 2 kinase (Homo sapiens) (UniProt O00418).
T3 sequence (whole entry): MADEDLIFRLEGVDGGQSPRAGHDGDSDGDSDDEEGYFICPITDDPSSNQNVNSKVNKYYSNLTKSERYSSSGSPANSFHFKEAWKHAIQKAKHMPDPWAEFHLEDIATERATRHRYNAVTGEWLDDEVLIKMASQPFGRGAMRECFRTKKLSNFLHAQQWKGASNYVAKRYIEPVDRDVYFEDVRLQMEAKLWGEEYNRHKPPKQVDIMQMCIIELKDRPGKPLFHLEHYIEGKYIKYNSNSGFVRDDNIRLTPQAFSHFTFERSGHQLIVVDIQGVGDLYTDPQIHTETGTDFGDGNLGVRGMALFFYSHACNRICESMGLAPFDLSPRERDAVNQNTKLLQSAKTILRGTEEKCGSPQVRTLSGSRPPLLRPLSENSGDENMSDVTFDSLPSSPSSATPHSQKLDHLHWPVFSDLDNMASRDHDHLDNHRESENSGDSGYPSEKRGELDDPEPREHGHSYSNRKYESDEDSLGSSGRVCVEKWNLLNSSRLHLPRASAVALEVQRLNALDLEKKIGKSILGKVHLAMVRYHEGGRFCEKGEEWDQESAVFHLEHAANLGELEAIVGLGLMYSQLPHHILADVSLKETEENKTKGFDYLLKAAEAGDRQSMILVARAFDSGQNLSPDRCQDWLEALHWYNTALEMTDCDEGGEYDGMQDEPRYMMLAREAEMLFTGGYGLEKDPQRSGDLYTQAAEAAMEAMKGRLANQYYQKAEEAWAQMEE
The data set can be described thus: Inhibition of human EEF2K assessed as residual activity at 0.1 uM relative to control.

Data set [12] deals with High affinity nerve growth factor receptor (Rattus norvegicus) (UniProt P35739). In words: Inhibition of TrkA in rat PC12 cells assessed as reduction in ERK1/ERK2 phosphorylation at 0.01 to 1 uM after 5 mins in presence of NGF by Western blot analysis. The note with it: PC-12, dose 0.01-1 µM. The data set is classed as cell-based.
Data set [13] has the same target. In words: Inhibition of TrkA phosphorylation in rat PC12 cells at 1 uM after 5 mins in presence of NGF by Western blot analysis. The following applies: PC-12. Type of data set: cell-based.
In data set [14] the test system is MG87. The data set can be described thus: Cytotoxicity against mouse MG87 cells transfected with pFA2-Elk plasmid and pFR-luciferase plasmid assessed as cellular ATP content at 0.01 to 1 uM after 24 hrs by CellTiter-Glo luminescent analysis. Type of data set: functional, cell-based. The note with it: dose 0.01-1 µM. Background: In ATP-based viability assays light output follows the ATP content of the culture.

Data set [15] concerns the target BDNF/NT-3 growth factors receptor (Mus musculus) (UniProt P15209). In words: Inhibition of TrkB phosphorylation in mouse MG87 cells transfected with pFA2-Elk plasmid and pFR-luciferase plasmid at 1 uM after 5 mins in presence of BDNF by Western blot analysis. The data set is classed as cell-based.
The target is the same in data set [16]. The data set can be described thus: Inhibition of TrkB in mouse MG87 cells transfected with pFA2-Elk plasmid and pFR-luciferase plasmid assessed as reduction in ERK1/ERK2 phosphorylation at 0.01 to 1 uM after 5 mins in presence of BDNF by Western blot analysis. Type of data set: cell-based. The following applies: dose 0.01-1 µM. A general note: A western blot detects proteins with antibodies after separation by electrophoresis.

The target in data set [17] is High affinity nerve growth factor receptor (Rattus norvegicus) (UniProt P35739). In words: Inhibition of TrkA in rat PC-12 cells assessed as reduction in Akt phosphorylation at 0.01 to 1 uM after 5 mins in presence of NGF by Western blot analysis. The data set is classed as cell-based. The note with it: dose 0.01-1 µM.
Data set [18] deals with BDNF/NT-3 growth factors receptor (Mus musculus) (UniProt P15209). In words: Inhibition of TrkB in mouse MG87 cells transfected with pFA2-Elk plasmid and pFR-luciferase plasmid assessed as reduction in Akt phosphorylation at 0.01 to 1 uM after 5 mins in presence of BDNF by Western blot analysis. The data set is classed as cell-based. The note with it: dose 0.01-1 µM.
BDNF/NT-3 growth factors receptor (Mus musculus), sequence (P15209 whole entry, the tested form may be a part): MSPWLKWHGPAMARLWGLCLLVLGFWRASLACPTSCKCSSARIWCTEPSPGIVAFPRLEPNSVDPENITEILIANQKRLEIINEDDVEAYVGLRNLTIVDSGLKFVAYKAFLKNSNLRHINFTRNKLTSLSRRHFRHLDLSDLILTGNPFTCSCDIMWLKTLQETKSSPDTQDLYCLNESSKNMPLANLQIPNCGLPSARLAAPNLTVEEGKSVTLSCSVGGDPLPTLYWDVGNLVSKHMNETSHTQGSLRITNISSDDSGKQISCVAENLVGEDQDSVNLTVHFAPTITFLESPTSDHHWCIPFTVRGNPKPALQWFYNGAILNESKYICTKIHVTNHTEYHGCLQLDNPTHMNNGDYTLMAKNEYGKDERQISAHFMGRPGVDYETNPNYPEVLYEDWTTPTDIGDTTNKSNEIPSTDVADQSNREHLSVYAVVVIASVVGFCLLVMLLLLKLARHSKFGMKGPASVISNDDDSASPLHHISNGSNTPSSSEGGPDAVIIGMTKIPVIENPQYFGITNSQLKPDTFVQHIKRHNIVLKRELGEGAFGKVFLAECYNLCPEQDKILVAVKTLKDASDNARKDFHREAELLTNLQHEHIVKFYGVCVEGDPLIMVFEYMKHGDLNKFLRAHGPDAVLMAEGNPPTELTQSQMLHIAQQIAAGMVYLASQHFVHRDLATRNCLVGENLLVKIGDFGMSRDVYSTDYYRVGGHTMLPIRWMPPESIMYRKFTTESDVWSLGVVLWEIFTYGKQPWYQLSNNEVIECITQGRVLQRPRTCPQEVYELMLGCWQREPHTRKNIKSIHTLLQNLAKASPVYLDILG
Data set [19] has as its target T2, BDNF/NT-3 growth factors receptor. The data set can be described thus: Inhibition of GAL4 fused TrkB (unknown origin) expressed in MG87 cells transfected with pFA2-Elk plasmid and pFR-luciferase plasmid measured for 18 hrs by luciferase reporter gene assay. Type of data set: cell-based.
The subject of data set [20] is Cortical neurone. The data set can be described thus: Cytotoxicity against Wistar rat cortical neuron assessed as neuron survival at 0.01 to 1 uM incubated for 24 hrs. The note with it: dose 0.01-1 µM. Type of data set: cell-based.
Data set [21] can be described thus: Aqueous solubility of the compound […] incubated for 60 min by RP-HPLC-DAD analysis. The data set is classed as physicochemical.

T1 sequence (P04629 whole entry, the tested form may be a part): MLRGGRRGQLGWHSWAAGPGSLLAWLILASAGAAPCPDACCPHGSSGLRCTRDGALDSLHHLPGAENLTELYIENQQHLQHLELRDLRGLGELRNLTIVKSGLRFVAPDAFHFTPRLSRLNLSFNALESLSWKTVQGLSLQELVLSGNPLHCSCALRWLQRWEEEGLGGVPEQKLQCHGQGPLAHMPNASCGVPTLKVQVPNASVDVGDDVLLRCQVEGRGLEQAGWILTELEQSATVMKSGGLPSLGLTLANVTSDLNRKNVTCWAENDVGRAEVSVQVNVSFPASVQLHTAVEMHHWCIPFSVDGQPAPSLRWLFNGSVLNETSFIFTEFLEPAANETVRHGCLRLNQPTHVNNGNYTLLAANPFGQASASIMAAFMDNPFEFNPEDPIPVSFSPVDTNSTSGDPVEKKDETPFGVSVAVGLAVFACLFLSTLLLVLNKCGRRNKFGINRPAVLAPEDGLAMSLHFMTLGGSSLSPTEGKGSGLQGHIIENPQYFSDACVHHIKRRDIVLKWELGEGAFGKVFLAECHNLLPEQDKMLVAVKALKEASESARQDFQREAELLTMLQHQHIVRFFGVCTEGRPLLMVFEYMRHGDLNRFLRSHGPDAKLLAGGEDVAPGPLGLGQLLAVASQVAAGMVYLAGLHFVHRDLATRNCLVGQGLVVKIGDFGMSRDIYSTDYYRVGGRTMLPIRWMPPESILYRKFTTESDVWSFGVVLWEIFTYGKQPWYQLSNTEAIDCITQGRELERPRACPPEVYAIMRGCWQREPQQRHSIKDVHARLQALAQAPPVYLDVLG

For the compound `COc1ccc2[nH]cc(/C=C3\C(=O)Nc4ccc(S(N)(=O)=O)cc43)c2c1`, the IC50 in data set [1] is 8.49 nM; in data set [4], 8.82 nM; in data set [5] it was 8.53 nM; in data set [10] it was 103 nM. Moreover, the Activity in data set [2] worked out at 86%; in data set [3] it was 35%; in [6] it was 93%; in data set [7], 87%; in [8], 95%; in data set [9], 91%. Besides, the Activity in data set [11] was 107%.
Take `CNS(=O)(=O)c1ccc2c(c1)/C(=C/c1cn(C)c3ccc(OC)cc13)C(=O)N2`: the inhibition result in data set [12], in [13], in [15], in data set [16], in [17] and in data set [18] was “Active” throughout. The result in data set [14] was inactive. The Activity in data set [6] is 99%; in [7] it was 103%; in [8] it was 88%; in [9], 89%; in [11], 103%.
As to `COc1ccc2c(c1)c(/C=C1\C(=O)Nc3ccc(S(N)(=O)=O)cc31)cn2C`, the inhibition result in data set [12], in data set [13], in data set [15], in [16], in [17] and in data set [18] was “Active” each time. Also, the result in [14] was inactive. Also, the Activity amounted to 100% in data set [6]; 102% in data set [7]; 95% in data set [8]; 90% in [9]; 101% in data set [11].
Turning to `Cn1cc(/C=C2\C(=O)Nc3ccc(S(N)(=O)=O)cc32)c2ccccc21`, the IC50 stood at 4.17 nM in data set [1], 6.86 nM in data set [4], 7.62 nM in data set [5] and 36.7 nM in data set [10]. Moreover, the Activity came out at 69% in data set [2]; 47% in data set [3]; 104% in [6]; 94% in data set [7]; 93% in [8]; 85% in data set [9]. In data set [11], the Activity was 99%.
With `CN(C)S(=O)(=O)c1ccc2c(c1)/C(=C/c1cn(C)c3ccc(O)cc13)C(=O)N2`, the IC50 in data set [1] turned out to be 9.17 nM; in data set [4], 9.72 nM; in [5] it was 13.5 nM; in data set [10], 92.8 nM. The Activity was found to be 107% in data set [2]; 91% in [3]; 96% in [6]; 103% in data set [7]; 107% in data set [8]; 78% in data set [9]. Further, the Activity in [11] came to 97%.
In the case of `COc1ccc2c(c1)c(/C=C1\C(=O)Nc3ccc(S(=O)(=O)N(C)C)cc31)cn2C`, the inhibition entry in [12], in [13], in data set [15], in [16], in data set [17] and in data set [18] was “Active” in each case. Moreover, the IC50 amounted to 142 nM in [19]; 10.1 nM in data set [1]; 11.7 nM in [4]; 15.2 nM in data set [5]; 46 nM in data set [10]. Further, the Activity in data set [2] is 102%; in data set [3] it was 91%; in [6] it was 97%; in data set [7], 95%; in data set [20] it was “Non-Toxic”; in [8], 108%. In addition, the Activity in data set [9] was 88%; in data set [11] it was 99%. The result in data set [14] was inactive. The compound also returned a solubility at 1 h in [21] of 7.8 µM (≈ 3.21 µg/mL).
